Experimental data as given in US20130109682A1, “CYCLIC ETHER COMPOUNDS USEFUL AS KINASE INHIBITORS” (NOVARTIS AG, priority 2010, published 2013).

Assays:
[1] = biological target: PIM1 (Homo sapiens, UniProt P11309); assay: KinaseGlo Pim1 ATP depletion assay; assay type: biochemical
Experimental: KinaseGlo Pim1 ATP Depletion Assay
The activity of PIM1 is measured using a luciferase-luciferin based ATP detection reagent to quantify ATP depletion resulting from kinase-catalyzed phosphoryl transfer to a peptide substrate. Compounds to be tested are dissolved in 100% DMSO and directly distributed into white 384-well plates at 0.5 μA per well. To start the reaction, 10 μA of 5 nM Pim1 kinase and 80 μM BAD peptide (RSRHSSYPAGT-OH) in assay buffer (50 mM HEPES pH 7.5, 5 mM MgCl2, 1 mM DTT, 0.05% BSA) is added into each well. After 15 minutes, 10 μl of 40 μM ATP in assay buffer is added. Final assay concentrations are 2.5 nM PIM1, 20 μM ATP, 40 μM BAD peptide and 2.5% DMSO. The reaction is performed until approximately 50% of the ATP is depleted, then stopped with the addition of 20 μA KinaseGlo Plus (Promega Corporation) solution. The stopped reaction is incubated for 10 minutes and the remaining ATP detected via luminescence on the Victor2 (Perkin Elmer). […] IC50, the half maximal inhibitory concentration, represents the concentration of a test compound that is required for 50% inhibition of its target in vitro.

[2] = biological target: PIM2 (Homo sapiens, UniProt Q9P1W9); assay: KinaseGlo Pim2 ATP depletion assay; assay type: biochemical
Sequence of PIM2 (Q9P1W9 whole entry): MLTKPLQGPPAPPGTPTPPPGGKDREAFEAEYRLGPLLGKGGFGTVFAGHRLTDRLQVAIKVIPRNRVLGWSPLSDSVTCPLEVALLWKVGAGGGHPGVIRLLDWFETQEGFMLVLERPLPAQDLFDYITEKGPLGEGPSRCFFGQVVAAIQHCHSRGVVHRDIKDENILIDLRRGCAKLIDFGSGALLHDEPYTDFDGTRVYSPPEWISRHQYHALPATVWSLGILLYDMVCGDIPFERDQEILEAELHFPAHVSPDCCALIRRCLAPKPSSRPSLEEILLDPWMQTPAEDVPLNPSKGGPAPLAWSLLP
Experimental: KinaseGlo Pim2 ATP Depletion Assay
The activity of PIM2 is measured using a luciferase-luciferin based ATP detection reagent to quantify ATP depletion resulting from kinase-catalyzed phosphoryl transfer to a peptide substrate. Compounds to be tested are dissolved in 100% DMSO and directly distributed into white 384-well plates at 0.5 piper well. To start the reaction, 10 μl of 10 nM Pim2 kinase and 20 μM BAD peptide (RSRHSSYPAGT-OH) in assay buffer (50 mM HEPES pH 7.5, 5 mM MgCl2, 1 mM DTT, 0.05% BSA) is added into each well. After 15 minutes, 10 μl of 8 μM ATP in assay buffer is added. Final assay concentrations are 5 nM PIM2, 4 μM ATP, 10 μM BAD peptide and 2.5% DMSO. The reaction is performed until approximately 50% of the ATP is depleted, then stopped with the addition of 20 μl KinaseGlo Plus (Promega Corporation) solution. The stopped reaction is incubated for 10 minutes and the remaining ATP detected via luminescence on the Victor2 (Perkin Elmer).

[3] = biological target: PIM3 (Homo sapiens, UniProt Q86V86); assay: KinaseGlo Pim3 ATP depletion assay; assay type: biochemical
Experimental: KinaseGlo Pim3 ATP Depletion Assay
The activity of PIM3 is measured using a luciferase-luciferin based ATP detection reagent to quantify ATP depletion resulting from kinase-catalyzed phosphoryl transfer to a peptide substrate. Compounds to be tested are dissolved in 100% DMSO and directly distributed into white 384-well plates at 0.5 μl per well. To start the reaction, 10 μl of 10 nM Pim3 kinase and 200 μM BAD peptide (RSRHSSYPAGT-OH) in assay buffer (50 mM HEPES pH 7.5, 5 mM MgCl2, 1 mM DTT, 0.05% BSA) is added into each well. After 15 minutes, 10 μl of 80 μM ATP in assay buffer is added. Final assay concentrations are 5 nM […], 40 μM ATP, 100 μM BAD peptide and 2.5% DMSO. The reaction is performed until approximately 50% of the ATP is depleted, then stopped by the addition of 20 μl KinaseGlo Plus (Promega Corporation) solution. The stopped reaction is incubated for 10 minutes and the remaining ATP detected via luminescence on the Victor2 (Perkin Elmer).

[4] = biological target: GSK3β (Homo sapiens, UniProt P49841); assay: GSK3β ATP depletion assay; assay type: biochemical; conditions: read-out: GSK3b IC50
Sequence of GSK3β (P49841 whole entry, species assumed): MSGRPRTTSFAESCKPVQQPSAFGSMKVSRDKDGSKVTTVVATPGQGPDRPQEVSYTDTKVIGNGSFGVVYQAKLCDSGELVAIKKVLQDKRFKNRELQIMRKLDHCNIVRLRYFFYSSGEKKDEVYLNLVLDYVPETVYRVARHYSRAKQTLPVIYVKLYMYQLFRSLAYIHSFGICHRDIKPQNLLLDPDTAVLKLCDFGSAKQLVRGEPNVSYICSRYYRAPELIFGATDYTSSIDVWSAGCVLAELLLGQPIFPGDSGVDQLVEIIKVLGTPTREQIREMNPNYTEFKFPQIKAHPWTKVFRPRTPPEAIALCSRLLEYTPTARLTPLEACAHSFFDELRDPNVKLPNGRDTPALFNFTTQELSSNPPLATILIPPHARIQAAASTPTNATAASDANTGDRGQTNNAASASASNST
Experimental: GSK3β ATP Depletion Assay
The activity of GSK3β is measured using a luciferase-luciferin based ATP detection reagent to quantify ATP depletion resulting from kinase-catalyzed phosphoryl transfer to a peptide substrate. Compounds to be tested are dissolved in 100% DMSO and directly distributed into white 384-well plates at 0.5 μl per well. To start the reaction, 10 μl of 10 nM GSK3B kinase and 20 μM biotinylated CREB peptide ([…](pS)YR-NH2) in assay buffer (50 mM TRIS pH 7.5, 15 mM MgCl2, 1 mM DTT, 0.1% BSA) is added into each well. After 15 minutes, 10 μl of 2 μM ATP in assay buffer is added. Final assay concentrations are 5 nM GSK3B, […], 10 μM b-CREB peptide and 2.5% DMSO. The reaction is performed until approximately 50% of the ATP is depleted, then stopped with the addition of 20 μl KinaseGlo (Promega Corporation) solution. The stopped reaction is incubated for 10 minutes and the remaining ATP is detected via luminescence on the Victor2 (Perkin Elmer).

[5] = tested on: KMS11 (human myeloma cell line); assay: Cell proliferation assay (CellTiter-Glo), KMS11; assay type: cell-based; conditions: KMS11-Luc cells
Experimental: KMS11 (human myeloma cell line), were cultured in IMDM supplemented with 10% FBS, sodium pyruvate and antibiotics. Cells were plated in the same medium at a density of 2000 cells per well into 96 well tissue culture plates, with outside wells vacant, on the day of assay. MMl.s (human myeloma cell line), were cultured in RPMI1640 supplemented with 10% FBS, sodium pyruvate and antibiotics. Cells were plated in the same medium at a density of 5000 cells per well into 96 well tissue culture plates, with outside wells vacant, on the day of assay.
Test compounds supplied in DMSO were diluted into DMSO at 500 times the desired final concentrations before dilution into culture media to 2 times final concentrations. Equal volumes of 2× compounds were added to the cells in 96 well plates and incubated at 37° C. for 3 days.
After 3 days plates were equilibrated to room temperature and equal volume of CellTiter-Glow Reagent (Promega) was added to the culture wells. The plates were agitated briefly and luminescent signal was measured with luminometer.
Using the procedures of Cell Proliferation Assay, the EC50 concentration of indicated compounds of the examples in were determined in KMS11 cells as shown in Table 4.

Sequence of PIM1 (P11309 whole entry): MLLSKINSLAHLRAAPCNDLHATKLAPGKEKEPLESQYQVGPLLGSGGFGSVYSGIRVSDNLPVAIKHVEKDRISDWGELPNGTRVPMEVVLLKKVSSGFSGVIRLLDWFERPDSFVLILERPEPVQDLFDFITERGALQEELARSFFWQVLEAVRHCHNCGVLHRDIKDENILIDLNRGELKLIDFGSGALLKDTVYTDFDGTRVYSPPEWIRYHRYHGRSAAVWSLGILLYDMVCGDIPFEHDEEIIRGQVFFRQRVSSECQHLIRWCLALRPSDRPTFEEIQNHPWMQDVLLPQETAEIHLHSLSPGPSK

SMILES | IC50 [1] [nM] | IC50 [2] [nM] | IC50 [3] [nM] | IC50 [4] [nM] | EC50 ([5]; Homo sapiens, KMS-11) [µM] | EC50 [5] [µM]
O=C(Nc1cnccc1[C@@H]1C[C@H](O)[C@@H](O)[C@H](C2CC2)O1)c1cccc(-c2c(F)cccc2F)n1 [Example 206, N-(4-((2S,4S,5R,6S)-6-cyclopropyl-4,5-dihydroxytetrahydro-2H-pyran-2-yl)pyridin-3-yl)-6-(2,6-difluorophenyl)picolinamide] | 19.9 | 33.8 | 20.2 | 1920 | > 10 | 
C[C@@H]1C[C@H](O)C[C@H](c2ccncc2NC(=O)c2ccc(F)c(-c3c(F)cccc3F)n2)O1 (stereo in doubt) [Example 126, 6-(2,6-difluorophenyl)-5-fluoro-N-(4-((2R,4S,6R)-4-hydroxy-6-methyltetrahydro-2H-pyran-2-yl)pyridin-3-yl)picolinamide] | 4 | 213 | 52 | 548 | > 10 | 
Nc1cnc(-c2c(F)cccc2F)nc1C(=O)Nc1cnccc1[C@@H]1C[C@H](O)[C@]2(O)CCCC[C@@H]2O1 [Example 175, 5-amino-2-(2,6-difluorophenyl)-N-(4-((2S,4S,4aR,8aS)-4,4a-dihydroxyoctahydro-2H-chromen-2-yl)pyridin-3-yl)pyrimidine-4-carboxamide] | 35.7 | 58.7 | 57.4 | 598 | > 10 | 
C[C@@H]1O[C@H](c2ccncc2NC(=O)c2csc(-c3c(F)cccc3F)n2)C[C@H](O)[C@@]1(C)O (stereo in doubt) [Example 111, 2-(2,6-difluorophenyl)-N-(4-((2S,4S,5R,6S)-4,5-dihydroxy-5,6-dimethyltetrahydro-2H-pyran-2-yl)pyridin-3-yl)thiazole-4-carboxamide] | 1 | 43 | 2 | 26 | > 10 | 
C[C@H]1O[C@@H](c2ccncc2NC(=O)c2ccc(F)c(-c3c(F)cccc3F)n2)[C@H](F)C(=O)[C@]1(C)O [Example 72, 6-(2,6-difluorophenyl)-5-fluoro-N-(4-((2S,3S,5R,6R)-3-fluoro-5-hydroxy-5,6-dimethyl-4-oxotetrahydro-2H-pyran-2-yl)pyridin-3-yl)picolinamide] | 1 | 15 | 6 | 385 | 1.5 | 
N#CC[C@H]1O[C@@H](c2ccncc2NC(=O)c2ccc(C#N)c(-c3c(F)cccc3F)n2)C[C@@H](O)[C@@H]1O [Example 47, 5-cyano-N-(4-((2R,4R,5S,6R)-6-(cyanomethyl)-4,5-dihydroxytetrahydro-2H-pyran-2-yl)pyridin-3-yl)-6-(2,6-difluorophenyl)picolinamide] | 58 | 356 | 113 | 9180 | > 10 | 

Second part, the compound after the results:

IC50 [1] [nM] | IC50 [2] [nM] | IC50 [3] [nM] | IC50 [4] [nM] | EC50 ([5]; Homo sapiens, KMS-11) [µM] | EC50 [5] [µM] | SMILES
2210 | > 25000 | 2850 | 13300 | > 10 |  | O=C(Nc1cnccc1[C@H]1C[C@@H](O)[C@@]2(O)CCC[C@H]2O1)c1cccn(-c2ccccc2)c1=O [Example 194, N-(4-((2R,4R,4aS,7aR)-4,4a-dihydroxyoctahydrocyclopenta[b]pyran-2-yl)pyridin-3-yl)-2-oxo-1-phenyl-1,2-dihydropyridine-3-carboxamide]
1.3 | 5.4 | 2.3 | 450 |  | > 10 | N#CC[C@H]1O[C@@H](c2ccncc2NC(=O)c2nc(-c3c(F)cccc3F)c(F)cc2N)C[C@@H](O)[C@@H]1O [Example 152, 3-amino-N-(4-((2R,4R,5S,6R)-6-(cyanomethyl)-4,5-dihydroxytetrahydro-2H-pyran-2-yl)pyridin-3-yl)-6-(2,6-difluorophenyl)-5-fluoropicolinamide]
1 | 2 | 2 | 2 | 0.6 |  | CC[C@H]1O[C@@H](c2ccncc2NC(=O)c2nc(-c3c(F)cccc3F)sc2N)C[C@@H](O)[C@@H]1O [Example 40, 5-amino-2-(2,6-difluorophenyl)-N-(4-((2R,4R,5S,6R)-6-ethyl-4,5-dihydroxytetrahydro-2H-pyran-2-yl)pyridin-3-yl)thiazole-4-carboxamide]
4.6 | 8.8 | 6.6 | 796 | > 10 |  | O=C(Nc1cnccc1[C@H]1C[C@@H](O)[C@H](O)[C@@H](C2CC2)O1)c1cccc(-c2c(F)cccc2F)n1 [Example 208, N-(4-((2R,4R,5S,6R)-6-cyclopropyl-4,5-dihydroxytetrahydro-2H-pyran-2-yl)pyridin-3-yl)-6-(2,6-difluorophenyl)picolinamide]
51 | 323 | 149 | 1330 | > 10 |  | C=C1[C@H](O)C[C@H](c2ccncc2NC(=O)c2nc(-c3c(F)cccc3F)ncc2N)OC12CC2 [Example 8, 5-amino-2-(2,6-difluorophenyl)-N-(4-((5R,7R)-7-hydroxy-8-methylene-4-oxaspiro[2.5]octan-5-yl)pyridin-3-yl)pyrimidine-4-carboxamide]
7 | 78 | 15 | 3590 | 9.2 |  | CC(C)NC(=O)c1ccc(F)c(-c2cccc(C(=O)Nc3cnccc3[C@H]3C[C@@H](O)[C@](C)(O)[C@@H](C)O3)n2)c1 [Example 106, N-(4-((2R,4R,5S,6R)-4,5-dihydroxy-5,6-dimethyltetrahydro-2H-pyran-2-yl)pyridin-3-yl)-6-(2-fluoro-5-(isopropylcarbamoyl)phenyl)picolinamide]
19 | 291 | 32 | 2800 | > 10 |  | O=C(Nc1cnccc1[C@H]1C[C@@H](O)[C@H](O)[C@@H](CO)O1)c1ccc(F)c(-c2c(F)cccc2F)n1 [Example 83, 6-(2,6-difluorophenyl)-N-(4-((2R,4R,5S,6R)-4,5-dihydroxy-6-(hydroxymethyl)tetrahydro-2H-pyran-2-yl)pyridin-3-yl)-5-fluoropicolinamide]
